Measured values published in PubChem BioAssay (NCI).
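1) Cells in 96-well plates. 2) Compound, 48 h, 5 concentrations. 3) Linear interpolation between surrounding doses. 4) Unreached endpoint = highest concentration. At the TGI there is no net growth.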

How the values were obtained:
Assay in all cases: NCI anticancer screen, dose series, 48 h
[1] = tested on: HCC-2998 colon
[2] = tested on: OVCAR-5 ovarian
[3] = tested on: LOX IMVI melanoma
[4] = tested on: NCI/ADR-RES ovarian
[5] = tested on: OVCAR-8 ovarian
[6] = tested on: A498 renal
[7] = tested on: U251 CNS
[8] = tested on: NCI-H23 lung
[9] = tested on: MDA-MB-435
[10] = tested on: UO-31 renal
[11] = tested on: IGROV1 ovarian
[12] = tested on: MALME-3M melanoma
[13] = tested on: SK-MEL-5 melanoma
[14] = tested on: SNB-75 CNS
[15] = tested on: SK-MEL-2 melanoma
[16] = tested on: RXF 393 renal
[17] = tested on: MDA-N
[18] = tested on: MDA-MB-231 breast
[19] = tested on: SF-268 CNS
[20] = tested on: KM12 colon
[21] = tested on: UACC-62 melanoma
[22] = tested on: SW-620 colon
[23] = tested on: HOP-62 NSCLC
[24] = tested on: NCI-H522 lung
[25] = tested on: PC-3 prostate
[26] = tested on: BT-549 breast
[27] = tested on: HS 578T breast
[28] = tested on: COLO 205 colon
[29] = tested on: HT29 colon
[30] = tested on: HCT-116 colon
[31] = tested on: CAKI-1 renal
[32] = tested on: ACHN renal
[33] = tested on: 786-0 renal
[34] = tested on: TK-10 renal
[35] = tested on: OVCAR-4 ovarian
[36] = tested on: MCF7 breast
[37] = tested on: HCT-15 colon
[38] = tested on: NCI-H226 lung
[39] = tested on: SN12C renal
[40] = tested on: DU-145 prostate
[41] = tested on: SNB-19 CNS
[42] = tested on: OVCAR-3 ovarian
[43] = tested on: SK-MEL-28 melanoma
[44] = tested on: HL-60(TB) leukemia
[45] = tested on: EKVX NSCLC
[46] = tested on: K-562 leukemia
[47] = tested on: SF-295 CNS
[48] = tested on: UACC-257 melanoma
[49] = tested on: MOLT-4 leukemia
[50] = tested on: NCI-H460 lung

Measured: TGI

NC1=NC(=O)[C@H](Cc2c[nH]c3ccccc23)N1C(=O)OCc1ccccc1
> 100 µM: all assays above
